PMC10536928, “Discovery of New Pyrrolo[2,3-d]pyrimidine Derivatives as Potential Multi-Targeted Kinase Inhibitors and Apoptosis Inducers” (Pharmaceuticals, 2023)

What was measured:
[1] = tested on: breast cancer (MDA-MB-231); assay: MTT cytotoxicity assay; format: cell-based; settings: Homo sapiens, 24 h exposure, mean ± SD of triplicate
Procedure: (§1) The cytotoxic effects of compounds 5a–m were evaluated using a standard MTT method against four different cancer cell lines, namely mammary gland cancer (MCF-7), hepatocellular carcinoma (HepG2), breast cancer (MDA-MB-231), and epithelioid cervix carcinoma (HeLa). […] These findings highlight the potential of these compounds as candidates for further development as cytotoxic agents for cancer treatment.
(§2) The cytotoxicity of compounds 5a–m was assessed against various cancer cell lines and one normal cell line using the described methodology. In brief, the cells were cultured in 96-well plates with a density of 1.0 × 10^4 cells per well, supplemented with 10% fetal bovine serum (FBS), an antibiotic cocktail, and RPMI 11,640 medium. The cells were then incubated for 48 h with 5% CO2 and 100% relative humidity at 37 °C. […] Following treatment, the addition of 20 µL of MTT solution was added to each well and incubation was continued for another 4 h, after which dimethyl sulfoxide (100 µL) was used to dissolve the resulting insoluble formazan. The absorbance was measured at 570 nm using a BioTek EXL 800 plate reader (Agilent Technologies, CA, USA). By comparing the absorbance of treated samples to untreated samples, the relative cell viability percentage was calculated as (A570 of treated samples/A570 of untreated sample) × 100. The IC50 values were determined based on triplicate measurements.

[2] = tested on: hepatocellular carcinoma (HepG2); assay: MTT cytotoxicity assay; format: cell-based; settings: Homo sapiens, 24 h exposure, mean ± SD of triplicate
Procedure: as §1, §2

[3] = tested on: mammary gland cancer (MCF-7); assay: MTT cytotoxicity assay; format: cell-based; settings: 24 h exposure, mean ± SD of triplicate
Procedure: as §1, §2

CDK2 = target: T1, CDK2 (Homo sapiens, UniProt P24941); assay: In vitro protein kinase inhibition assay (ELISA kit); format: biochemical; settings: triplicate
T1 construct: purchased
Procedure: (§3) In accordance with the documented procedures, fifteen derivatives of the synthesized compounds were evaluated for their inhibitory effects on EGFR, VEGFR-2, Her2, and CDK2 using specific human ELISA kits (Enzyme-Linked Immunosorbent Assay) designed for each respective kinase enzyme. Initially, various concentrations of the synthesized compounds were combined with specific antibodies for each enzyme in individual wells of a 96-well plate, followed by incubation at room temperature for 2.5 h. Subsequently, the plate was washed, and a biotin antibody (100 µL), prepared in-house, was added and allowed to incubate at ambient temperature for 1 h. After another washing step, a solution of streptavidin (100 µL) was introduced to each well and left for 45 min at room temperature. Following a third round of washing, a TMB Substrate (100 µL) reagent was applied to all wells and incubated for 30 min at room temperature. Finally, the reaction was terminated by adding 50 µL of a stop solution, and the absorbance was directly measured at 450 nm. A standard curve was constructed, illustrating the relationship between concentration (X-axis) and absorbance (Y-axis).

EGFR = target: T2, EGFR (Homo sapiens, UniProt P00533); assay: as above; format: biochemical; settings: triplicate
T2 construct: purchased
Procedure: as §3

Her2 = target: T3, Her2 (Homo sapiens, UniProt P04626); assay: as above; format: biochemical; settings: triplicate
T3 construct: purchased
Procedure: as §3

VEGFR2 = target: T4, VEGFR2 (Homo sapiens, UniProt P35968); assay: as above; format: biochemical; settings: triplicate
T4 construct: purchased
Procedure: as §3

Bax = assay: Apoptotic protein levels assay (ELISA) in HepG2 cells; format: cell-based
From the text: (§4) To validate the mechanism of cell death and the induction of apoptosis caused by compound 5k, the expression levels of some apoptotic proteins were investigated. […] Specifically, the levels of caspase-3 (6.9 folds higher than the control) and Bax (2.6 folds higher than the control) were higher in the group treated with 5k compared to the control group. Caspase-3 is a key enzyme involved in the execution of apoptosis, while Bax is a pro-apoptotic protein that promotes cell death. […] Bcl-2 is a protein that inhibits apoptosis, so the lower levels of Bcl-2 in the 5k treated group further support the notion that treatment with 5k may induce apoptosis in HepG2 cells. […] These findings may have implications for the development of novel therapies for diseases involving abnormal cell death, including cancer. Further studies are warranted in order to elucidate the underlying mechanisms of action of compound 5k and to assess its potential therapeutic applications.
(§5) The ELISA technique was employed to assess the impact of compound 5k on the alteration of protein levels associated with caspase-3, BAX, and Bcl-2. Specifically, the following ELISA kits were utilized: KHO1091 (InvitrogenTM, Grand Island, NY, USA) for caspase-3, EIA-4860 and EIA-4487 for BAX, (DRU International INC., Mountainside, NJ, USA), and 99-0042 (InvitrogenTM, Grand Island, NY, USA) for Bcl-2 for the respective measurements. The experimental procedures were conducted according to the instructions provided by the manufacturers and our recently published article. Initially, HepG2 cells were cultured in triplicate in 96-well plates. Following a 24-h incubation period, the cells were subjected to various concentrations of compound 5k, while a control group was treated with 0.1% DMSO (V/V). After an additional 24-h incubation, the absorbance levels were assessed using a BioTek Synergy H1 Multi-mode Reader (Agilent Technologies, Santa Clara, CA, USA) at wavelengths ranging from 450 to 650 nm.

Bcl-2 = assay: as above; format: cell-based
From the text: as §4, §5

caspase-3 = assay: as above; format: cell-based
From the text: as §4, §5

T4 sequence (P35968 20-1356): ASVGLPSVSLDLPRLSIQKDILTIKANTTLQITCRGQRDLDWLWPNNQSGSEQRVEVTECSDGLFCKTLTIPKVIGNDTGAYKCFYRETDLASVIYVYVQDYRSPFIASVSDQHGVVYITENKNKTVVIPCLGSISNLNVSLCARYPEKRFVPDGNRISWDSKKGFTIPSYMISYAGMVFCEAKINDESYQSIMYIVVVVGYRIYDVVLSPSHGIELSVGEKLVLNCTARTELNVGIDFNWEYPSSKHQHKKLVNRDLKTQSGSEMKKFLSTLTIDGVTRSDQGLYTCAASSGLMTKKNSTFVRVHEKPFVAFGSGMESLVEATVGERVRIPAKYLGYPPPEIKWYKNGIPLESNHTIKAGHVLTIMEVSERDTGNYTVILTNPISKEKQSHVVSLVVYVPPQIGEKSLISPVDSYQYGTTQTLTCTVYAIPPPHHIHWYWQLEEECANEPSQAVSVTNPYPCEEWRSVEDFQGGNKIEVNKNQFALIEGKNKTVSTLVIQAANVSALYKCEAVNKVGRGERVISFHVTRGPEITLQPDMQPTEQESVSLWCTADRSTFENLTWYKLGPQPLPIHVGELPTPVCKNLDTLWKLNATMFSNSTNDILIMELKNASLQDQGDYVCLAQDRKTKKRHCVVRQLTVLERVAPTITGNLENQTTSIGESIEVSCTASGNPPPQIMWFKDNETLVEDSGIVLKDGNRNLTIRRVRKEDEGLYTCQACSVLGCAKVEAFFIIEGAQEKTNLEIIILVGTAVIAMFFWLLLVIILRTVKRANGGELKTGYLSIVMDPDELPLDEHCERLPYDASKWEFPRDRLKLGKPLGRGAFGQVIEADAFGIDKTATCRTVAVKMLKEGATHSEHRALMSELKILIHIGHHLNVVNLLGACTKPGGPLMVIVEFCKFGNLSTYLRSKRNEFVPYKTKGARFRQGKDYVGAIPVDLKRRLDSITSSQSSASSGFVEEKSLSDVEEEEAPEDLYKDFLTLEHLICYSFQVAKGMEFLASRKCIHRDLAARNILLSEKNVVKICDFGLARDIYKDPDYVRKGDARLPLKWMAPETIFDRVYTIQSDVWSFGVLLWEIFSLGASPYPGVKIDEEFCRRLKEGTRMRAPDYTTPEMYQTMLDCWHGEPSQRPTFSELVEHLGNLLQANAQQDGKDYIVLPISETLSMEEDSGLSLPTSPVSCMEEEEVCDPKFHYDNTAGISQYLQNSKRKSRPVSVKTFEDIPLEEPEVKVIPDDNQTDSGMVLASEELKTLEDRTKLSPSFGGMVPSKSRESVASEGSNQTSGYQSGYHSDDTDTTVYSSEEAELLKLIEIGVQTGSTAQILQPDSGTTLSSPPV
T2 sequence (P00533 25-1210): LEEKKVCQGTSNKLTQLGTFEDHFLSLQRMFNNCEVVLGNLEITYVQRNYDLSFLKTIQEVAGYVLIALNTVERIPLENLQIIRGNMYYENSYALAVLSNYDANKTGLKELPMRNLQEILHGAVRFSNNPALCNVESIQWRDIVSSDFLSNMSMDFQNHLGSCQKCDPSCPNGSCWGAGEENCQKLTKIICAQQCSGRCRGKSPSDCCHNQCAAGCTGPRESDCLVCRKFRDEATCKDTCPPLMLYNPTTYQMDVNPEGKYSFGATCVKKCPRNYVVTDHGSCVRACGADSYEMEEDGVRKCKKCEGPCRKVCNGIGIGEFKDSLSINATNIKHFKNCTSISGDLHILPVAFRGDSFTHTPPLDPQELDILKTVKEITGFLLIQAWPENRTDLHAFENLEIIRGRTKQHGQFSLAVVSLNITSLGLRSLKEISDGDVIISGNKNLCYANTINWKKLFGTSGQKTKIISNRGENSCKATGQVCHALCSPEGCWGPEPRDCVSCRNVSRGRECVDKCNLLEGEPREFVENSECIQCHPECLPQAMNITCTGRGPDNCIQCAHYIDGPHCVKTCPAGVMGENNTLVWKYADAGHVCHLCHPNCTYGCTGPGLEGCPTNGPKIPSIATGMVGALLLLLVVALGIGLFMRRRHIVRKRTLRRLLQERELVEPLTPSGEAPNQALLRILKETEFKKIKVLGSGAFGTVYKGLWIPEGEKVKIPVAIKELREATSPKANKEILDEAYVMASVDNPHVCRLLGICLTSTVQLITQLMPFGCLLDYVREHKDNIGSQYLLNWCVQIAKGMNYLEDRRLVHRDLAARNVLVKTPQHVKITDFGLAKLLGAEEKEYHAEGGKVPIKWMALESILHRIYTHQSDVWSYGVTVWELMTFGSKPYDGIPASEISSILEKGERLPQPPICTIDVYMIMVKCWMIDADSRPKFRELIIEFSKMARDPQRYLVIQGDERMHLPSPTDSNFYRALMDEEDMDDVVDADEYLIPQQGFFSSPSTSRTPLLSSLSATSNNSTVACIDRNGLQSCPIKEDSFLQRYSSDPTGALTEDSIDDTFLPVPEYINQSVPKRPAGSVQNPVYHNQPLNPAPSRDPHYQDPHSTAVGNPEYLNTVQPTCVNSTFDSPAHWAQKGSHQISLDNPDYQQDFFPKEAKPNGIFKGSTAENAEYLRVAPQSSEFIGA
T3 sequence (P04626 23-1255): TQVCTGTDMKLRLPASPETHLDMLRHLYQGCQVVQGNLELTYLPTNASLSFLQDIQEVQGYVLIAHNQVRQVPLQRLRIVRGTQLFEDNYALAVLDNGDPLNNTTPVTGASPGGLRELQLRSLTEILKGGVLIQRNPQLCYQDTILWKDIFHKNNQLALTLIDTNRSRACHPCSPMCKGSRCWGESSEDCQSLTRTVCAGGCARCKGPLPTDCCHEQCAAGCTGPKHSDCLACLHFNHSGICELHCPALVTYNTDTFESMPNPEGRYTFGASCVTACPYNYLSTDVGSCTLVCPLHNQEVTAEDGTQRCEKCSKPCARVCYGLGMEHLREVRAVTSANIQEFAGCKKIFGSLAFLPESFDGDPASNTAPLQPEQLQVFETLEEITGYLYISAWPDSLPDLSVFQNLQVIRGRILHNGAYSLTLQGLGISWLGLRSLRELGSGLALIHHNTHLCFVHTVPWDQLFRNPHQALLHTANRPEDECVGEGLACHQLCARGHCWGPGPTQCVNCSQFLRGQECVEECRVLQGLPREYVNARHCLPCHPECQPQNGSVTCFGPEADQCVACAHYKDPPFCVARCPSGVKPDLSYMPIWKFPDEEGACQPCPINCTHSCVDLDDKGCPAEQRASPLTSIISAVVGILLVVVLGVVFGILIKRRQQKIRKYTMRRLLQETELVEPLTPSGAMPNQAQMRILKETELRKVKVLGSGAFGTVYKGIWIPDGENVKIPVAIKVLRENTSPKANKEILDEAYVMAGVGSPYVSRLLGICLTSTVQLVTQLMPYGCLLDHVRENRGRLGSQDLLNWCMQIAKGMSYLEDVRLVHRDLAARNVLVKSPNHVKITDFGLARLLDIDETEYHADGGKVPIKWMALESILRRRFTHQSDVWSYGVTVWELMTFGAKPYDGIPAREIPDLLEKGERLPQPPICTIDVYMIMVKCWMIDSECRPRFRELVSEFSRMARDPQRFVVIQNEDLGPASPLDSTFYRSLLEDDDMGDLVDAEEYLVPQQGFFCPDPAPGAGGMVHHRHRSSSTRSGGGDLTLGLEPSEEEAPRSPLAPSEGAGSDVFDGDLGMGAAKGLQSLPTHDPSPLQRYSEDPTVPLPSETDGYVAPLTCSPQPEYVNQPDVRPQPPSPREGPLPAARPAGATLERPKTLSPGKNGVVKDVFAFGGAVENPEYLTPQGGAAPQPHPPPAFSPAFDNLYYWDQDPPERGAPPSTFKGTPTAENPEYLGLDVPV

IC50 (CDK2): 204 nM
IC50 (EGFR): 79 nM
IC50 (Her2): 40 nM
IC50 (VEGFR2): 136 nM
Structure (SMILES): O=C(N/N=C/c1ccc(Cl)c(Cl)c1)c1ccc(Nc2ncnc3[nH]ccc23)cc1 [Compound 5k, (E)-4-((7H-Pyrrolo[2,3-d]pyrimidin-4-yl)amino)-N’-(3,4-dichlorobenzylidene)benzohydrazide]
IC50 [1]: 51.4 ± 2.8 µM
IC50 [2]: 41.5 ± 2.6 µM
IC50 [3]: 59.1 ± 3.5 µM
IC50 ([3]; Homo sapiens, MCF7, 24 h): 60 µM
Bax level, folds higher than the control (Bax): 2.6 folds
Protein Expression (Pg/mL) Bax (Bax; 24 h, ELISA, control 67.09 ± 4.94): 173.8 ± 6.61 pg/mL
Bcl-2 level relative to the control (Bcl-2): two-fold lower than the control
Protein Expression (Pg/mL) Bcl-2 (Bcl-2; 24 h, ELISA, control 11.7 ± 0.36): 5.146 ± 0.09 pg/mL
caspase-3 level, folds higher than the control (caspase-3): 6.9 folds
Protein Expression (Pg/mL) Caspase-3 (caspase-3; 24 h, ELISA, control 66.28 ± 4.66): 453.8 ± 17.4 pg/mL
